{"source": "paper PMC4022148", "about": "(Molecular and biochemical parasitology, 2014)", "target": "T1, E. histolytica LMW-PTP (Entamoeba histolytica, UniProt C4LSE7)", "T1 sequence (C4LSE7 1-157)": "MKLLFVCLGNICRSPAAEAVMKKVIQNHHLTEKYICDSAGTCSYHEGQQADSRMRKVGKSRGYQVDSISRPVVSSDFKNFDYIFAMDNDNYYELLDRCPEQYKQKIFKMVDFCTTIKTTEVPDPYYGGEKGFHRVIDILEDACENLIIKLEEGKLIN", "assay": "colorimetric phosphatase assay, A405", "format": "biochemical", "conditions": "kit assay buffer, 10-200 ng enzyme, 100 ul", "data": [{"smiles": "O=[N+]([O-])c1ccc(OP(=O)(O)O)cc1", "note": "[pNPP]", "values": [{"measurement": "colorimetric phosphatase assay, A405 (SensoLyte pNPP kit)", "value": "The wild-type recombinant LMW-PTP possessed phosphatase activity"}]}]}
